Test results from publication PMC9688475, “Identification and Analysis of Small Molecule Inhibitors of CRISPR-Cas9 in Human Cells” (Cells, 2022).

Key:
SpCas9 [1] = target: T1, SpCas9 (Streptococcus pyogenes serotype M1, UniProt Q99ZW2); assay: Inhibition of SpCas9 nuclease activity in EGFP/iCas9/gRNA-EGFP reporter 293T cells (flow cytometry); format: cell-based; design: expressed in transfected cells; host or cells: H2AX-EGFP HEK293T cells, lentiviral transduction, doxycycline-induced
Source text: The H2AX-EGFP 293T cell line was first generated using the previously reported MMEJ-mediated CRIS-PITCh system. Briefly, we cloned two gRNAs (Supplementary Table S3) that respectively target H2AX gene and the PITCh vector into the px330 plasmid (Addgene, #42230). The PITCh vector contains a pair of 20-bp homologous sequences targeting the upstream and downstream regions of the H2AX gRNA cleavage site, and the SFB-EGFP expression cassette. The three plasmids were co-transfected into 293T cells at an equimolar ratio. GFP-positive cells were sorted by FACS and individually expanded to isolate single clones for genomic DNA extraction and PCR verification of successful knock-in (KI) of the SFB-EGFP cassette into 5′-end of first exon of the H2AX gene. The selected H2AX-EGFP 293T cell clone was subsequently infected with lentiviruses encoding tetracycline-inducible SpCas9 (iCas9). After drug selection, individual clones were again expanded and verified for inducible Cas9 expression. The selected clone was subsequently infected with lentivirus encoding a gRNA that targets EGFP. Puromycin-resistant clones ([…], Thermo Fisher Scientific) were then isolated after >7 days for further analysis.

[2] = system: EGFP expression in uninduced reporter 293T cells; assay: EGFP expression in uninduced reporter 293T cells; format: cell-based, human; settings: for effect on EGFP expression in uninduced cells: 40 μM
Procedure: The reporter 293T cells were seeded into 96-well plates at a density of 10,000 cells per well and cultured overnight before the addition of DMSO alone or various compounds (in DMSO solution) at appropriate concentrations (0.125–100 μM) with or without 2 μg/mL doxycycline for an additional 72 h of incubation. The cells were then harvested for analysis with the CytoFLEX flow cytometer (Beckman Coulter, Brea, CA, USA) or analyzed by western blot with antibodies as indicated. […] The inhibiting efficiency in reporter 293T cells was calculated using the following equation: E’ = (P2 − P1)/(P0 − P1) × 100%, where E’ is the inhibiting efficiency in reporter 293T cells, and P0, P1, and P2 are the GFP positive cell ratio of the uninduced group, Dox and DMSO treated control group, and Dox and compound treated group, respectively.

[3] = system: Streptococcus pyogenes Cas9 (SpCas9); settings: inhibits SpCas9 by blocking its binding to DNA; ref [33]; cited from earlier work
SpCas9 [4] = target: T1, SpCas9; assay: SpCas9 in vitro DNA cleavage assay; format: biochemical; design: His6 (N); TEV site (N); made in house; host or cells: E. coli BL21 Star (DE3)
Procedure: The assay was carried out in NEBuffer 3 (New England Biolabs, Ipswich, MA, USA). First, 19.2 μL of the SpCas9–gRNA (58.8 nM) mixture was incubated with 2.4 μL of various compounds (dissolved in DMSO) at desired concentrations (0.1–2 mM) at room temperature for 10 min. Then, 2.4 μL of 3.48 nM ApaI-linearized px458 plasmid was added for further incubation at 37 °C for 60 min. The reaction was terminated by adding 0.5 μL Proteinase K (20 mg/mL) (Invitrogen) and incubation at 55 °C for 15 min. The reaction products were resolved on a 0.7% TAE agarose gel, stained with Gel Red (Biotium, Fremont, CA, USA). Then the products were visualized by Chemidoc XRS plus system (Bio-Rad, Hercules, CA, USA), and band intensities were quantified using ImageJ software (National Institutes of Health developed; Bethesda, MD, USA). The inhibition efficiency in the cleavage assays was calculated using the following equation: E = (C1 − C2)/C1 × 100%, where E is the inhibition efficiency, and C1 and C2 are the cleavage rate of the DMSO group and compound treated group, respectively.
The cleavage rate was calculated using the following equation:C = (B1 + B2)/(B0 + B1 + B2) × 100%, where C is the cleavage rate, B0, B1, and B2 are the band intensities of uncleaved products, upper cleaved products, and lower cleaved products, respectively.

XbaI = XbaI in vitro cleavage assay; format: biochemical; settings: compound 200 μM
Procedure: (§1) In vitro cleavage experiments used commercial restriction enzymes (Thermo Fisher Scientific). The restriction enzyme NotI or XbaI (0.1 μL) was mixed with the compounds in a FastDigest buffer (Thermo Fisher Scientific). It was then incubated at room temperature for 10 min, and an ApaI-linearized px458 plasmid was added and reacted at 37 °C for 15 min. The samples were mixed with a DNA loading buffer. The cleavage products were electrophoresed on 1% TAE agarose gel and imaged using a Bio-Rad gel imager.

NotI = NotI in vitro cleavage assay; format: biochemical; settings: compound 200 μM
Procedure: as §1

T1 sequence (Q99ZW2 whole entry): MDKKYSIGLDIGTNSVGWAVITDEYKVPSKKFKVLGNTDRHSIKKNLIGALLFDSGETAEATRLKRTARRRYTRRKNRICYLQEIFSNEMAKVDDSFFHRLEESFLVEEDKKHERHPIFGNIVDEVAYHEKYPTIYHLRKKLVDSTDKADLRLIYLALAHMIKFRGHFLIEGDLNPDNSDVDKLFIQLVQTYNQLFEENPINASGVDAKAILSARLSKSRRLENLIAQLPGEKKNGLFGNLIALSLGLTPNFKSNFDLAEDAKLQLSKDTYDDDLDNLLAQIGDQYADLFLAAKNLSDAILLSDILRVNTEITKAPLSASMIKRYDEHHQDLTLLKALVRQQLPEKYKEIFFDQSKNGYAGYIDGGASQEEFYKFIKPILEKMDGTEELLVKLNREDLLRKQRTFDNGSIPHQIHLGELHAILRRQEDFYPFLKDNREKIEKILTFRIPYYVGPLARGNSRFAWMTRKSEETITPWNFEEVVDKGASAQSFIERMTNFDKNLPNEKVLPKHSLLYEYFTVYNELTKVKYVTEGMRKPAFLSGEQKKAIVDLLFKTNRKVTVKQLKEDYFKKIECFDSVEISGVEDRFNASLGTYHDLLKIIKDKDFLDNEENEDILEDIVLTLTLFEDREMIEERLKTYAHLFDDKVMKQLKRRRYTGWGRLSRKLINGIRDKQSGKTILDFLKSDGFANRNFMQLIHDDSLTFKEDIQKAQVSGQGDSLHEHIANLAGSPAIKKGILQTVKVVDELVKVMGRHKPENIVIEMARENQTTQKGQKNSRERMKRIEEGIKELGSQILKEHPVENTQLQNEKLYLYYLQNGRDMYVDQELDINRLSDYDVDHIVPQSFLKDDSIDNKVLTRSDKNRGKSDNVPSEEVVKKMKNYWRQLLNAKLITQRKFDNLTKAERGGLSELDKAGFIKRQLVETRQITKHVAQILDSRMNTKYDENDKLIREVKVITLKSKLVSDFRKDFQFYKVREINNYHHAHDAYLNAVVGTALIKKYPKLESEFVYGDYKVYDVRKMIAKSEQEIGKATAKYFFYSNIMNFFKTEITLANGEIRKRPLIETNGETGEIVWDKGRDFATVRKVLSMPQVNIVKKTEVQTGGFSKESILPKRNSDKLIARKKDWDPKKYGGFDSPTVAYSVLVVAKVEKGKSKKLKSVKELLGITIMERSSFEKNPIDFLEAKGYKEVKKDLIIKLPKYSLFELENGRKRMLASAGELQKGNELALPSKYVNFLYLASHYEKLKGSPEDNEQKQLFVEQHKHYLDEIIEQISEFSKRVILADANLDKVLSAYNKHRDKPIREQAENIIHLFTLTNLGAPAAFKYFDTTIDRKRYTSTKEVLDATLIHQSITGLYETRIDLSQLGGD

In the case of `COc1ccc(C(=O)/C(C#N)=N/Nc2ccccc2[N+](=O)[O-])cc1` [SP14], the “SpCas9 inhibition in reporter cells” value (SpCas9 [1]; 10 μM, Dox 2 μg/mL, 72 h) is reported as 50% and the “effect on EGFP expression in uninduced cells” value (shortened to “effect … in uninduced cells”) ([2]; uninduced) is reported as “reduce EGFP expression (albeit slightly)”.
With `CCCCOC(=O)c1ccc(NN=c2c(=O)c3ccccc3c2=O)cc1` [SP11] the “SpCas9 inhibition in reporter cells” value (SpCas9 [1]; 40 μM, Dox 2 μg/mL, 72 h) was “less than 50%”.
With `O=C1CCCC/C1=N/Nc1ccc(N2CCCCC2)cc1` [SP5] the “SpCas9 inhibition in reporter cells” value (SpCas9 [1]; 40 μM, Dox 2 μg/mL, 72 h) was “less than 50%”.
For BRD0539, the IC50 [3] is listed as 22 µM.
With `CCOC(=O)c1oc2c(c1C)/C(=N\Nc1ccc([N+](=O)[O-])cc1)CCC2` [SP34] the “SpCas9 inhibition in reporter cells” value (SpCas9 [1]; 40 μM, Dox 2 μg/mL, 72 h) was “less than 50%”.
In the case of `Cc1ccc(C(=O)/C(C#N)=N\Nc2ccc([N+](=O)[O-])cc2)cc1` [SP15], the “SpCas9 inhibition in reporter cells” value (SpCas9 [1]; 10 μM, Dox 2 μg/mL, 72 h) is reported as 50% and the “effect … in uninduced cells” value ([2]; uninduced) is reported as “reduce EGFP expression (albeit slightly)”.
With `O=C(C=NNc1cc([N+](=O)[O-])ccc1O)c1ccc(Br)cc1` [C12c, 1-(4-bromophenyl)-2-(2-(2-hydroxy-5-nitrophenyl)hydrazono)ethanone] the inhibition at 40 µM (SpCas9 [1]; HEK-293T, read-out: SpCas9 inhibition in reporter cells) was roughly 50%, the melting point was 246.6 to 247.2 °C and the “effect on EGFP expression in uninduced reporter 293T cells” value ([2]; uninduced, concentration not given) was “did not negatively affect”. The “inhibitory activity in in vitro SpCas9 cleavage (in words)” value (shortened to “inhibitory activity”) (SpCas9 [4]; compound 200 μM) was “weakly inhibited”.
In the case of `COc1cc(Cl)ccc1N=NC1C(=O)N(c2ccccc2)N=C1C` (stereo not drawn) [SP28], the “SpCas9 inhibition in reporter cells” value (SpCas9 [1]; 40 μM, Dox 2 μg/mL, 72 h) is reported as “less than 50%”.
For `Cc1nc2ccc(N=NC3=C(O)CCCC3=O)cc2s1` [SP33], the “SpCas9 inhibition in reporter cells” value (SpCas9 [1]; 40 μM, Dox 2 μg/mL, 72 h) was “less than 50%”.
In the case of `O=C1CCCC/C1=N\Nc1ccc(OCc2ccccc2)cc1` [SP19], the “SpCas9 inhibition in reporter cells” value (SpCas9 [1]; 40 μM, Dox 2 μg/mL, 72 h) is reported as “less than 50%”.
For `O=C(C=NNc1ccc(Cl)cc1)c1ccc(Br)cc1` [C12b, 1-(4-bromophenyl)-2-(2-(4-chlorophenyl)hydrazono)ethanone], the melting point was 235.2 to 237.2 °C, the “inhibitory activity” value (SpCas9 [4]; compound 200 μM) was “strong inhibitory activities” and the inhibition at 200 µM (SpCas9 [4]; read-out: inhibition rate, in vitro SpCas9 cleavage) was 89%.
For `O=C(C(=NNc1ccc([N+](=O)[O-])cc1)n1cncn1)c1ccc(F)cc1F` [C12d, 1-(2,4-difluorophenyl)-2-(2-(4-nitrophenyl)hydrazono)-2-(1H-1,2,4-triazol-1-yl)ethanone], the “inhibitory activity” value (SpCas9 [4]; compound 200 μM) was “weakly inhibited”.
With `Cc1cccc(N/N=C(/C#N)C(=O)c2ccc(Br)cc2)c1` [SP12] the “SpCas9 inhibition in reporter cells” value (SpCas9 [1]; 10 μM, Dox 2 μg/mL, 72 h) was “less than 50%” and the “SpCas9 inhibition in reporter cells” value (SpCas9 [1]; 40 μM, Dox 2 μg/mL, 72 h) was greater than 50%.
In the case of `O=C1CCCC/C1=N/Nc1ccc(OC2CCCCC2)cc1` [SP9], the “SpCas9 inhibition in reporter cells” value (SpCas9 [1]; 10 μM, Dox 2 μg/mL, 72 h) is reported as “less than 50%” and the “SpCas9 inhibition in reporter cells” value (SpCas9 [1]; 40 μM, Dox 2 μg/mL, 72 h) is reported as greater than 50%.
For `CC1(C)CC(=O)C(N=Nc2ccc3ncsc3c2)=C(O)C1` [SP36], the “SpCas9 inhibition in reporter cells” value (SpCas9 [1]; 40 μM, Dox 2 μg/mL, 72 h) was “less than 50%”.
With `CC1=NN(c2ccccc2)C(=O)C1N=Nc1nc2ccccc2s1` (stereo not drawn) [SP29] the “SpCas9 inhibition in reporter cells” value (SpCas9 [1]; 10 μM, Dox 2 μg/mL, 72 h) was 50% and the “effect … in uninduced cells” value ([2]; uninduced) was “reduce EGFP expression (albeit slightly)”.
For `O=C1CCCC/C1=N\Nc1ccc([N+](=O)[O-])cc1` [SP6], the “SpCas9 inhibition in reporter cells” value (SpCas9 [1]; 40 μM, Dox 2 μg/mL, 72 h) was “less than 50%”.
For `O=C(Oc1ccc(/C=N/Nc2ccccc2)cc1)c1cc([N+](=O)[O-])cc([N+](=O)[O-])c1` [SP32], the “SpCas9 inhibition in reporter cells” value (SpCas9 [1]; 10 μM, Dox 2 μg/mL, 72 h) was “less than 50%” and the “SpCas9 inhibition in reporter cells” value (SpCas9 [1]; 40 μM, Dox 2 μg/mL, 72 h) was greater than 50%.
With “1-(2-(4-nitrophenyl) hydrazono)-4-bromo-acetophenone [C12]” the “activity of XbaI” value (XbaI) was “not affected”, the “efficiency of SpCas9 inhibition in reporter cells” value (SpCas9 [1]; 100 μM, Dox 2 μg/mL, 72 h) was 17.1% and the “effect on EGFP expression in the absence of Dox induction” value ([2]; 100 μM, reporter cells, no Dox) was “no effects”. For the same molecule, the “inhibition rate, in vitro SpCas9 cleavage” value (SpCas9 [4]; compound 200 μM, SpCas9–gRNA 58.8 nM, linearized plasmid 3.48 nM) was 84% and the “activity of NotI” value (NotI) was “not affected”.
`CCC(=O)C=NNc1ccc([N+](=O)[O-])cc1` [C9, 1-(2-(4-nitrophenyl) hydrazono)butanone] showed a melting point of 190.3 to 191.7 °C.
For `COc1ccc(C(=O)Oc2ccccc2/C=N\Nc2ccc([N+](=O)[O-])cc2)cc1` [SP8], the “SpCas9 inhibition in reporter cells” value (SpCas9 [1]; 40 μM, Dox 2 μg/mL, 72 h) was “less than 50%”.
